{"source": "paper PMC4710668", "about": "“Bioactivation of food genotoxicants 5-hydroxymethylfurfural and furfuryl alcohol by sulfotransferases from human, mouse and rat: a comparative study” (Archives of Toxicology, 2014)", "key": {"[1]": {"test_system": "S. typhimurium TA100 strains expressing different SULT forms", "settings": "ref Glatt et al. [2012]; cited from earlier work"}, "female B6C3F1 mice": {"test_system": "female B6C3F1 mice", "assay": "Two-year bioassay of HMF, oral administration", "assay_type": "in vivo", "settings": "70 kg human body weight, uptake 4–30 mg per person"}, "[2]": {"set-up": "method as in Monien et al. [2009]", "settings": "100 mg HMF/kg body weight administered to mice; ref Monien et al. [2009]; cited from earlier work"}, "rSult2a1": {"molecular_target": "T1, rSult2a1 (Rattus norvegicus, UniProt P15709)", "T1 construct": "made in house; host or cells: Salmonella typhimurium TA1538 (cytosolic fraction, enzyme not purified)", "T1 sequence (P15709 1-284)": "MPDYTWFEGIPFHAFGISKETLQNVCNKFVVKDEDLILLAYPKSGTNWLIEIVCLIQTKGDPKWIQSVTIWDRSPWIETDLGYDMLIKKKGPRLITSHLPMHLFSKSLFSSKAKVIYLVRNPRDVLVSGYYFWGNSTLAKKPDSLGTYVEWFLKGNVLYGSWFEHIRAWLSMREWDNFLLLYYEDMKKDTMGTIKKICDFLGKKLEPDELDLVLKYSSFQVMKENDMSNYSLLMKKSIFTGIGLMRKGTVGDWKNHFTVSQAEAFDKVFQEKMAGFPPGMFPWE", "assay": "FFA sulfoconjugation assay (N6-MF-A formation with adenosine as scavenger)", "assay_type": "biochemical", "procedure": "(§1) Cytosolic fractions containing individual SULT forms were prepared from transgenic S. typhimurium TA1538. Table S1 in the Supplementary Material provides a summary of the thirty SULTs used in the current study together with references describing the cloning of the respective S. typhimurium TA1538 strains. The expressed SULT forms are denoted with the prefixes h, m and r for human, mouse and rat enzymes, respectively. Bacteria were grown in Luria Broth medium containing ampicillin (100 µg/ml) by stirring for 8 h at 200 revolutions/min at 37 °C. The bacterial suspensions were centrifuged at 5,000 g for 10 min. The sediments were washed twice with 25 ml of 10 mM potassium phosphate buffer (pH 7.4)/50 mM potassium chloride (KCP buffer) and centrifuged again. The pellets were taken up in 800 µl KCP buffer and sonicated thrice for 15 s with 30 s pauses in between. The soluble fraction was attained by centrifuging for 1 h at 100,000 g. The supernatants (in the following termed cytosolic preparations) were frozen at −80 °C. The protein concentrations were determined according to a bicinchoninic acid (BCA) assay protocol. The SULT concentrations in the cytosolic preparations were estimated after electrophoretic separation and immunodetection using inclusion bodies of different SULT forms as standards (Teubner et al. [2007]). The preparation of SULT inclusion bodies and the immunodetection of SULTs is described in the Supplementary Material, which also contains a representative immunoblot of different amounts of rSult1a1standard and a cytosolic preparation of S. typhimurium expressing rSult1a1 (Fig. S1).\n(§2) The reaction mixtures were prepared as described for HMF. In addition, they contained 10 mM adenosine as a nucleophilic scavenger. Following incubation for 20 min at 37 °C, sulfoconjugation reactions were stopped by adding 100 µl cold methanol containing 175 fmol of [^15N5]N ^6-MF-A as the internal standard, mixed and centrifuged at 15,000 g for 10 min. The clear supernatants were subjected to UPLC-MS/MS analyses. Incubations were performed as quadruplicates. At higher concentrations, FFA reacts spontaneously with adenosine at low, but detectable, levels. To correct for the SULT-independent adduct formation, mixtures with SULT-deficient cytosols were carried along simultaneously in duplicate. Controls were subtracted from the experimental samples.\n(§3) The ribonucleoside adduct N ^6-((furan-2-yl)methyl)-adenosine (N ^6-MF-A) was analyzed by isotope-dilution UPLC-MS/MS with the same system described above using a HSS T3 column (1.8 µm, 2.1 × 100 mm, Waters). Samples of 8 µl were eluted with 10 mM ammonium bicarbonate buffer, pH 8.0 (A) and methanol (B) using an 6-min gradient from 98 % solvent A to 15 % solvent A at 0.35 ml/min flow rate (Yin et al. [2013]). The electrospray interface of the mass spectrometer operated in the positive ion mode. The fragmentations of N ^6-MF-A into the aglycone cation [N ^6-((furan-2-yl)methyl)-adenine-H]^+ (m/z = 348.1 → 216.1), the cleavage of the 2-methylfuranyl cation (m/z = 348.1 → 81.0) and the release of [N ^6-methyl-adenine-H]^+ (m/z = 348.1 → 148.0) were monitored together with the corresponding fragmentations of the isotope-labeled internal standard [^15N5]N ^6-MF-A for the formation of the aglycone (m/z = 353.1 → 221.1), the 2-methylfuran cation (m/z = 353.1 → 81.0) and ^15N5-labeled N ^6-methyl-adenine (m/z = 353.1 → 153.0). The N ^6-MF-A content of the incubation mixture was calculated from the ratio of peak areas resulting from the total ion current of all three MRM signals of the analyte. For the fragmentation of N ^6-MF-A ([^15N5]N ^6-MF-A), collision energies were 20, 25 and 35 eV for the transitions m/z = 348.1 → 216.1 (m/z = 353.1 → 221.1), m/z = 348.1 → 148.0 (m/z = 353.1 → 153.0) and m/z = 348.1 → 81.0 (m/z = 353.1 → 81.0), respectively. […]"}, "mSult2b1b": {"molecular_target": "T2, mSult2b1b (Mus musculus, UniProt O35400)", "T2 construct": "made in house; host or cells: Salmonella typhimurium TA1538 (cytosolic fraction, enzyme not purified)", "T2 sequence (O35400 1-338)": "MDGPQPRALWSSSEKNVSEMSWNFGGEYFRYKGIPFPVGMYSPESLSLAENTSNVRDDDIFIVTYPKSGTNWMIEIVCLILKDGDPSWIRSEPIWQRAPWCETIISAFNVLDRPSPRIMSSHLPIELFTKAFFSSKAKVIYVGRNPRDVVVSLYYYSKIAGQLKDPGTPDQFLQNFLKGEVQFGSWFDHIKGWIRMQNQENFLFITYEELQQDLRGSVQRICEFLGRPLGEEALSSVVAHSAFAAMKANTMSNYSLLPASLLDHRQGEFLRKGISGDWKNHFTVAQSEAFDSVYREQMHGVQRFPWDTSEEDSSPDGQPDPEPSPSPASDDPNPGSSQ", "assay": "FFA sulfoconjugation assay (N6-MF-A formation with adenosine as scavenger)", "assay_type": "biochemical", "procedure": "as §1, §2, §3"}, "mSult1d1": {"molecular_target": "T3, mSult1d1 (Mus musculus, UniProt Q3UZZ6)", "T3 construct": "made in house; host or cells: Salmonella typhimurium TA1538 (cytosolic fraction, enzyme not purified)", "T3 sequence (Q3UZZ6 whole entry)": "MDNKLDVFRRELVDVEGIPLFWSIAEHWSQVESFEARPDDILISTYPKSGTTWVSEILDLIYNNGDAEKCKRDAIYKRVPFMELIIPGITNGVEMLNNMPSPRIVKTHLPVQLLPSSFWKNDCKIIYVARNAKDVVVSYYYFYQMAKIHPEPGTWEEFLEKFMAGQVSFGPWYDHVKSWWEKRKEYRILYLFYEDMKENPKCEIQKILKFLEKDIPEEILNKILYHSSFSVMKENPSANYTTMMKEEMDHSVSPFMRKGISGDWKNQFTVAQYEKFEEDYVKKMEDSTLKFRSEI", "assay": "FFA sulfoconjugation assay (N6-MF-A formation with adenosine as scavenger)", "assay_type": "biochemical", "procedure": "as §1, §2, §3"}}}
{"smiles": "O=Cc1ccc(CO)o1", "note": "[HMF, 5-Hydroxymethylfurfural]", "values": [{"measurement": "mutagenicity in SULT-expressing strains", "setting": "[1]", "result": "small, were detectable in those strains that expressed hSULT1A1, 1A3 and 1C2 as well as mSult1a1 and 1d1"}, {"measurement": "margin between carcinogenic dose (188 mg/kg) and human HMF uptake", "setting": "female B6C3F1 mice", "result": "440- to 3,300 fold"}, {"measurement": "fraction of dose converted to SMF", "setting": "[2]", "result": 500, "unit": "ppm"}]}
{"smiles": "OCc1ccco1", "note": "[FFA, furfuryl alcohol]", "values": [{"measurement": "mutagenicity in SULT-expressing strains", "setting": "[1]", "result": "highest mutagenicity of FFA was observed in bacteria expressing hSULT1A1, 1C2 and mSult1a1"}, {"measurement": "Rate of N6-MF-A formation", "setting": "rSult2a1; 0.1 mM FFA", "result": "<18", "unit": "fmol N ^6-MF-A/mg/min"}, {"measurement": "Rate of N6-MF-A formation", "setting": "rSult2a1; 1 mM FFA", "result": "24.8 ± 1.4", "unit": "fmol N ^6-MF-A/mg/min"}, {"measurement": "Rate of N6-MF-A formation", "setting": "rSult2a1; 10 mM FFA", "result": "228 ± 7", "unit": "fmol N ^6-MF-A/mg/min"}, {"measurement": "Rate of N6-MF-A formation", "setting": "mSult2b1b; 0.1 mM FFA", "result": "<18", "unit": "fmol N ^6-MF-A/mg/min"}, {"measurement": "Rate of N6-MF-A formation", "setting": "mSult2b1b; 1 mM FFA", "result": "<20", "unit": "fmol N ^6-MF-A/mg/min"}, {"measurement": "Rate of N6-MF-A formation", "setting": "mSult2b1b; 10 mM FFA", "result": "<44", "unit": "fmol N ^6-MF-A/mg/min"}, {"measurement": "Rate of N6-MF-A formation", "setting": "mSult1d1; 0.1 mM FFA", "result": "52.5 ± 1.7", "unit": "fmol N ^6-MF-A/mg/min"}, {"measurement": "Rate of N6-MF-A formation", "setting": "mSult1d1; 1 mM FFA", "result": "468 ± 6", "unit": "fmol N ^6-MF-A/mg/min"}, {"measurement": "Rate of N6-MF-A formation (corr.)", "setting": "mSult1d1; 1 mM FFA, corrected by actual SULT concentration in the cytosolic preparation", "result": "4,260 ± 60 fmol N ^6-MF-A/mg/min"}, {"measurement": "Rate of N6-MF-A formation", "setting": "mSult1d1; 10 mM FFA", "result": "2,610 ± 30 fmol N ^6-MF-A/mg/min"}]}
